One may read the IC50 as the midpoint of a concentration-inhibition curve. What is called pIC50 is the negative decadic logarithm of the IC50, by convention in mol/L.

pIC50: −log10 of the molar value.

The test system of one experiment is IL23p19 in THP-1 Cells. In words: LPS Induced IL23p19 in THP-1 Cells (with IFNγ Primed) Assay. It counts as cell-based. The settings on record: Homo sapiens, THP-1, 18 h, read-out: IL23 (THP, LPS) (IC50, μM). The method, boiled down:
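THP-1 cells (50K/well) primed with IFNγ (50 ng/mL) about 18 h, then given compound and stimulated with LPS for 18 h at 37 °C. Secreted IL-23p19 measured by sandwich ELISA with chemiluminescent read-out, giving EC50. Cell Titer Glo used on the remaining cells for toxicity.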

In the next experiment the test system is TNF-α in human PBMCs. The experiment in a line: R848-induced TNF-α in human PBMCs Assay. It counts as cell-based. The following applies: Homo sapiens, PBMC, 4 h, read-out: TNFα (PBMC, R848) (IC50, μM). The method, boiled down: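 Human PBMCs at 200K/well were pretreated with compound, then R848-stimulated for 4 h at 37 °C, 5% CO2. Supernatant TNF-α quantified by chemiluminescent ELISA; EC50 from curve fitting.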

Experiment [1] relates to TNF-α in Human Primary Monocyte-Derived Dendritic Cells. In words: Gardiquimod-Induced TNF-α in Human Primary Monocyte-Derived Dendritic Cells. The settings on record: Dendritic cell, IFNγ-primed monocyte-derived dendritic cells, 4 μg/ml Gardiquimod, 6 hours, TNF-α ELISA, read-out: TNFα (DC, GARD) (IC50). It counts as cell-based. The method, boiled down:
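Monocytes differentiated 7 days with GM-CSF and IL-4, then primed 24 h with 50 ng/ml IFN-γ. Compound added 1 h before 6 h stimulation with 4 μg/ml Gardiquimod, 0.5% DMSO final. Supernatant TNF-α measured by chemiluminescent ELISA; EC50 from curve fitting.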
In general terms: An ELISA detects its analyte on a solid surface through an enzyme-linked reagent.

Another experiment has as its target IRAK4 (Homo sapiens (Human), UniProt Q9NWZ3). The experiment in a line: IRAK4 ADP-Glo Assay. The class given is biochemical. The settings on record: MBP substrate. The method, boiled down:
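Human IRAK4 kinase reaction with MBP substrate plus ATP in Tris-HCl/MgCl2/BSA/DTT buffer, pH 7.4, run 60 min at room temperature or 30 min at 30 °C. ADP formed was measured by ADP-Glo luminescence after ATP depletion (40 min) and detection reagent (30 min).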
For orientation: ADP-Glo turns the ADP formed in a reaction into a luminescent signal.

Chain of IRAK4 (Q9NWZ3 whole entry): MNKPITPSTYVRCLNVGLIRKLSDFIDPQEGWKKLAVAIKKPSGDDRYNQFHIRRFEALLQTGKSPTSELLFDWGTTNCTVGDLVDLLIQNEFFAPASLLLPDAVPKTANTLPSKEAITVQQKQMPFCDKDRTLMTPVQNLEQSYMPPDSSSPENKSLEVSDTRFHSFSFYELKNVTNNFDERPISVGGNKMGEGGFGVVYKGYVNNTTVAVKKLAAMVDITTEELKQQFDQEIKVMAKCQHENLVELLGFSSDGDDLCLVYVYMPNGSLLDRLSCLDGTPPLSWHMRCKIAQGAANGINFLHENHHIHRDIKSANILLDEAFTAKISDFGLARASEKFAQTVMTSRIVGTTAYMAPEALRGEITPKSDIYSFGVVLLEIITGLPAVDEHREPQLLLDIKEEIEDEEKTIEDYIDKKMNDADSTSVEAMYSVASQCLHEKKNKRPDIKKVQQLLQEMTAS

Take `CC(C)Oc1cc2c(OC[C@@H]3CCC(=O)N3)ncc(-c3cnn(C4CCC4)c3)c2cc1C(N)=O` [Compound I-33, (S)-4-(1-cyclobutyl-1H-pyrazol-4-yl)-7-isopropoxy-1-((5-oxopyrrolidin-2-yl)methoxy)isoquinoline-6-carboxamide]: the IC50 amounted to 0.2 µM in the experiment with IL23p19 in THP-1 Cells and 0.272 µM in the experiment on TNF-α in human PBMCs. Also, the pIC50 in experiment [1] was 6.66; on IRAK4, 8.12.

In the case of `CC(C)Oc1cc2c(OC[C@@H]3CCC(=O)N3)ncc(-c3cnn(C4CCCC4)c3)c2cc1C(N)=O` [Compound I-34, (S)-4-(1-cyclopentyl-1H-pyrazol-4-yl)-7-isopropoxy-1-((5-oxopyrrolidin-2-yl)methoxy)isoquinoline-6-carboxamide], the values for the IC50 in the experiment on IL23p19 in THP-1 Cells and in the experiment on TNF-α in human PBMCs were 1.3 µM and 0.295 µM, respectively. Besides, the pIC50 in experiment [1] was 6.33; at IRAK4, 8.11.

As to `CC(C)Oc1cc2c(OC[C@@H]3CCC(=O)N3)ncc(-c3cnn(C4CCOCC4)c3)c2cc1C(N)=O` [Compound I-35, (S)-7-isopropoxy-1-((5-oxopyrrolidin-2-yl)methoxy)-4-(1-(tetrahydro-2H-pyran-4-yl)-1H-pyrazol-4-yl)isoquinoline-6-carboxamide], the figures for the IC50 with IL23p19 in THP-1 Cells and in the experiment on TNF-α in human PBMCs were 7.52 µM and 1.3 µM, respectively. Also, the pIC50 was 5.79 in experiment [1] and 7.59 on IRAK4.

With `CC(C)Oc1cc2c(OC[C@@H]3CCC(=O)N3)ncc(-c3cnn(CC4CCOCC4)c3)c2cc1C(N)=O` [Compound I-36, (S)-7-isopropoxy-1-((5-oxopyrrolidin-2-yl)methoxy)-4-(1-((tetrahydro-2H-pyran-4-yl)methyl)-1H-pyrazol-4-yl)isoquinoline-6-carboxamide], the IC50 with IL23p19 in THP-1 Cells was found to be 0.976 µM; with TNF-α in human PBMCs it was 0.377 µM. Also, the pIC50 is 6.40 in experiment [1] and 7.87 against IRAK4.

`CC(C)Oc1cc2c(OC[C@@H]3CCC(=O)N3)ncc(-c3cnn(CCC4CCOCC4)c3)c2cc1C(N)=O` [Compound I-37, (S)-7-isopropoxy-1-((5-oxopyrrolidin-2-yl)methoxy)-4-(1-(2-(tetrahydro-2H-pyran-4-yl)ethyl)-1H-pyrazol-4-yl)isoquinoline-6-carboxamide]: the IC50 is 1.34 µM in the experiment with IL23p19 in THP-1 Cells and 0.324 µM in the experiment on TNF-α in human PBMCs. Moreover, the pIC50 is 6.53 in experiment [1] and 7.86 at IRAK4.

Turning to `CC(C)Oc1cc2c(OC[C@@H]3CCC(=O)N3)ncc(-c3cnn(CCN4CCOCC4)c3)c2cc1C(N)=O` [Compound I-38, (S)-7-isopropoxy-4-(1-(2-morpholinoethyl)-1H-pyrazol-4-yl)-1-((5-oxopyrrolidin-2-yl)methoxy)isoquinoline-6-carboxamide], the figures for the IC50 in the experiment on IL23p19 in THP-1 Cells and in the experiment with TNF-α in human PBMCs were 3.41 µM and 1.49 µM, respectively. Also, the values for the pIC50 (in experiment [1]; at IRAK4) were 5.39 and 7.68, respectively.

`CCO[C@H]1CC[C@H](n2cc(-c3cnc(OC[C@@H]4CCC(=O)N4)c4cc(OC(C)C)c(C(N)=O)cc34)cn2)CC1` [Compound I-39, 4-(1-(trans-4-ethoxycyclohexyl)-1H-pyrazol-4-yl)-7-isopropoxy-1-(((S)-5-oxopyrrolidin-2-yl)methoxy)isoquinoline-6-carboxamide]: the IC50 in the experiment with IL23p19 in THP-1 Cells amounted to 0.775 µM; in the experiment with TNF-α in human PBMCs, 0.693 µM. Also, the pIC50 was 5.45 in experiment [1] and 7.48 against IRAK4.

For the molecule `CC(C)Oc1cc2c(OC[C@@H]3CCC(=O)N3)ncc(-c3cnn([C@H]4CC[C@](C)(O)CC4)c3)c2cc1C(N)=O` [Compound I-40, 4-(1-((1r,4S)-4-hydroxy-4-methylcyclohexyl)-1H-pyrazol-4-yl)-7-isopropoxy-1-(((S)-5-oxopyrrolidin-2-yl)methoxy)isoquinoline-6-carboxamide], the values for the IC50 with IL23p19 in THP-1 Cells and in the experiment with TNF-α in human PBMCs were 0.817 µM and 0.188 µM, respectively. For the same molecule, the figures for the pIC50 (in experiment [1]; on IRAK4) were 5.62 and 7.77, respectively.

In the case of `CC(C)Oc1cc2c(OC[C@@H]3CCC(=O)N3)ncc(-c3cnn([C@H]4CC[C@@](C)(O)CC4)c3)c2cc1C(N)=O` [Compound I-41, 4-(1-((1s,4R)-4-hydroxy-4-methylcyclohexyl)-1H-pyrazol-4-yl)-7-isopropoxy-1-(((S)-5-oxopyrrolidin-2-yl)methoxy)isoquinoline-6-carboxamide], the 50% inhibitory concentration (IC50) in the experiment on IL23p19 in THP-1 Cells is 4.61 µM; with TNF-α in human PBMCs it was 0.509 µM. The values for the pIC50 (in experiment [1]; against IRAK4) were 5.00 and 7.42, respectively.

Take `CCO[C@H]1C[C@@H](n2cc(-c3cnc(OC[C@@H]4CCC(=O)N4)c4cc(OC(C)C)c(C(N)=O)cc34)cn2)C1` [Compound I-42, 4-(1-(cis-3-ethoxycyclobutyl)-1H-pyrazol-4-yl)-7-isopropoxy-1-(((S)-5-oxopyrrolidin-2-yl)methoxy)isoquinoline-6-carboxamide]: the IC50 in the experiment on IL23p19 in THP-1 Cells was found to be 0.72 µM; in the experiment on TNF-α in human PBMCs it was 0.241 µM. Moreover, the pIC50 in experiment [1] was 6.87; against IRAK4 it was 8.19.

Take `CC(C)Oc1cc2c(OC[C@@H]3CCC(=O)N3)ncc(-c3cnn([C@H]4C[C@@H](N(C)C)C4)c3)c2cc1C(N)=O` [Compound I-43, 4-(1-(cis-3-(dimethylamino)cyclobutyl)-1H-pyrazol-4-yl)-7-isopropoxy-1-(((S)-5-oxopyrrolidin-2-yl)methoxy)isoquinoline-6-carboxamide]: the IC50 in the experiment with IL23p19 in THP-1 Cells came out at 3.1 µM; in the experiment with TNF-α in human PBMCs, 0.701 µM. Moreover, the values for the pIC50 (in experiment [1]; against IRAK4) were 6.45 and 8.30, respectively.

Consider `CC(C)Oc1cc2c(OC[C@@H]3CCC(=O)N3)ncc(-c3cnn(C4CCN(C(=O)OC(C)(C)C)CC4)c3)c2cc1C(N)=O` [Compound I-44, tert-butyl (S)-4-(4-(6-carbamoyl-7-isopropoxy-1-((5-oxopyrrolidin-2-yl)methoxy)isoquinolin-4-yl)-1H-pyrazol-1-yl)piperidine-1-carboxylate], for which the IC50 with IL23p19 in THP-1 Cells was 0.937 µM; in the experiment on TNF-α in human PBMCs it was 0.727 µM. Besides, the pIC50 in experiment [1] was 5.98; against IRAK4, 7.68.

With `CC(C)Oc1cc2c(OC[C@@H]3CCC(=O)N3)ncc(-c3cnn(C4CCNCC4)c3)c2cc1C(N)=O` [Compound I-45, (S)-7-isopropoxy-1-((5-oxopyrrolidin-2-yl)methoxy)-4-(1-(piperidin-4-yl)-1H-pyrazol-4-yl)isoquinoline-6-carboxamide], the IC50 in the experiment on IL23p19 in THP-1 Cells amounted to 10.9 µM; in the experiment on TNF-α in human PBMCs, 10 µM. The pIC50 was 5.87 in experiment [1] and 7.73 against IRAK4.

For `CC(C)Oc1cc2c(OC[C@@H]3CCC(=O)N3)ncc(-c3cnn(C4CCN(C)CC4)c3)c2cc1C(N)=O` [Compound I-46, (S)-7-isopropoxy-4-(1-(1-methylpiperidin-4-yl)-1H-pyrazol-4-yl)-1-((5-oxopyrrolidin-2-yl)methoxy)isoquinoline-6-carboxamide], the IC50 in the experiment with IL23p19 in THP-1 Cells is 5.42 µM; with TNF-α in human PBMCs it was 1.25 µM. Further, the pIC50 is 6.33 in experiment [1] and 7.81 against IRAK4.

For the molecule `CC(C)Oc1cc2c(OC[C@@H]3CCC(=O)N3)ncc(-c3cn[nH]c3)c2cc1C(N)=O` [Compound I-47, (S)-7-isopropoxy-1-((5-oxopyrrolidin-2-yl)methoxy)-4-(1H-pyrazol-4-yl)isoquinoline-6-carboxamide], the IC50 was 2.73 µM in the experiment with IL23p19 in THP-1 Cells and 0.816 µM in the experiment with TNF-α in human PBMCs. Besides, the pIC50 is 5.73 in experiment [1] and 8.12 at IRAK4.

For the molecule `CC(C)Oc1cc2c(OC[C@@H]3CC(F)(F)C(=O)N3)ncc(C#CC3(O)CCCC3)c2cc1C(N)=O` [Compound I-48, (S)-1-((4,4-difluoro-5-oxopyrrolidin-2-yl)methoxy)-4-((1-hydroxycyclopentyl)ethynyl)-7-isopropoxyisoquinoline-6-carboxamide], the IC50 with IL23p19 in THP-1 Cells amounted to 0.165 µM; in the experiment with TNF-α in human PBMCs it was 0.0569 µM. In addition, the results for the pIC50 (in experiment [1]; at IRAK4) were 6.92 and 8.36, respectively.

With `CC(C)Oc1cc2c(OC[C@@H]3CC(F)(F)C(=O)N3)ncc(C#CC3CCOCC3)c2cc1C(N)=O` [Compound I-49, (S)-1-((4,4-difluoro-5-oxopyrrolidin-2-yl)methoxy)-7-isopropoxy-4-((tetrahydro-2H-pyran-4-yl)ethynyl)isoquinoline-6-carboxamide], the IC50 in the experiment on IL23p19 in THP-1 Cells came to 0.273 µM; in the experiment with TNF-α in human PBMCs, 0.0853 µM. Moreover, the pIC50 in experiment [1] was 7.13; at IRAK4 it was 8.12.

In the case of `CC(C)Oc1cc2c(OC[C@@H]3CC(F)(F)C(=O)N3)ncc(C#CCC3CCOCC3)c2cc1C(N)=O` [Compound I-50, (S)-1-((4,4-difluoro-5-oxopyrrolidin-2-yl)methoxy)-7-isopropoxy-4-(3-(tetrahydro-2H-pyran-4-yl)prop-1-yn-1-yl)isoquinoline-6-carboxamide], the figures for the IC50 in the experiment on IL23p19 in THP-1 Cells and with TNF-α in human PBMCs were 1.62 µM and 0.115 µM, respectively. In addition, the negative logarithm of the IC50 (pIC50) in experiment [1] is 6.64; against IRAK4, 8.32.

Turning to `CC(C)Oc1cc2c(OC[C@@H]3CC(F)(F)C(=O)N3)ncc(C#CC3(O)CCOCC3)c2cc1C(N)=O` [Compound I-51, (S)-1-((4,4-difluoro-5-oxopyrrolidin-2-yl)methoxy)-4-((4-hydroxytetrahydro-2H-pyran-4-yl)ethynyl)-7-isopropoxyisoquinoline-6-carboxamide], the values for the 50% inhibitory concentration (IC50) in the experiment on IL23p19 in THP-1 Cells and in the experiment on TNF-α in human PBMCs were 1.27 µM and 0.391 µM, respectively. The pIC50 was 5.99 in experiment [1] and 8.28 at IRAK4.
